Experimental data as given in patent US20100119589A1, “LIPOSOMAL COMPOSITION OF ANTIOXIDANTS FOR INHALATIONS CARRIED OUT DURING LUNG AND UPPER RESPIRATORY TRACT DISEASES” (OTKRYTOE AKTSIONERNOE OBSCHESTVO ZAVOD EKOLOGICHES, priority 2006, published 2010).

Key:
[1] = test system: multi lamellar vesicles of soybean phosphatidylcholine (PCh); assay: Inhibition of peroxidic oxidation of lipids (POL): TBA-sensitive products in soybean phosphatidylcholine liposomes; type: biochemical
Description: The antioxidative activity of preparations with varying combinations of the ingredients was evaluated on the basis of their effect on the increase of concentration of POL products (malondialdehyde or products that are sentitive to thiobarbituric acid (TBA)) in an aqueous dispersion of soybean phospholipids. For this evaluation the concentration in the soybean phospatidylcholine liposomes was measured at an initial moment and after incubation at 37° C. for 60 min. in the absence and presence of POL starters, namely, Fe^3+ ions and ascorbate.
Originally a 2.0 percent aqueous dispersion of phospholipides with antioxidants, where wheat germ oil is also present, contains an insignificant amount of products sensitive to TBA (0.8 nmol/ml). This amount rises to 2-2.5 times as much as a result of heating for 60 min. When starters are added to the original system the concentration of POL products rises to 40 nmol/ml during incubation at 37° C. for 60 min., i.e., will be […] as high.
Increase of the amount of products sensitive to TBA [nmol/ml] in multi lamellar vesicles of soybean phosphatidylcholine (PCh) containing N-acetyl-L-cysteine as a result of oxidation, the latter caused by introduction of an oxidation starter Pe3+/ascorbat (60 min, 37° C.) into the system, in the absence and presence of various antioxidants (AO).

[2] = in tablets; cited from earlier work

Molecule: O=C1O[C@H]([C@@H](O)CO)C(O)=C1O [ascorbic acid]
- minimum inhibiting concentration ([1]; POL inhibition, ascorbic acid alone): 2.5 mg/mL
- decrease of the concentration of the acid when wheat germ oil is simultaneously present ([1]; wheat germ oil and ascorbic acid simultaneously present): 5 times

Molecule: O=C1c2c(O)cc(O)cc2O[C@H](c2ccc(O)c(O)c2)[C@H]1O [dihydroquercetin]
- minimum effective concentration ([1]; POL inhibition): 0.03 mg/mL
- antioxidant activity when wheat germ oil was added ([1]; wheat germ oil added to dihydroquercetin): decreased

Molecule: vitamin E
- bioavailability [2]: 3%
